The text below walks through data of ChEMBL document CHEMBL1201862, “PubChem BioAssay data set” (2004).

Assay in all cases: growth of human tumour cells (NCI), 48 h
For test [1], the system named is SF-295.
Test [2] deals with OVCAR-3.
Test [3] relates to LOX IMVI.
For test [4], the system named is NCI/ADR-RES.
In test [5] the test system is NCI-H226.
Test [6] deals with IGROV-1.
Test [7] deals with K562.
The test system of test [8] is DU-145.
The subject of test [9] is MCF7.
Test [10] deals with MDA-MB-435.
For test [11], the system named is SR.
In test [12] the test system is NCI-H23.
Test [13] concerns HL-60.
In test [14] the test system is MDA-N.
The test system of test [15] is SF-539.
The test system of test [16] is BT-549.
For test [17], the system named is SNB-75.
Test [18] deals with Malme-3M.
Test [19] deals with A498.
The test system of test [20] is UACC-62.

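Briefly, cells in 96-well plates were exposed to five compound concentrations for 48 h, and endpoints were estimated by linear interpolation. GI50 is the concentration that inhibits growth by half.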 The source made the active and inactive calls. Cut-off read from the data, not from the text of the source: active = GI50 up to about 1.1 µM and inactive = higher. Bounds are passed on as bounds.

Turning to `CC(=O)N1C(c2[nH]c3ccccc3c2-c2ccccc2)CCN1c1ccccc1` (stereo not given), the GI50 in test [1], in test [2], in [3], in [4], in test [5] and in [6] was > 10 µM (inactive) in each case. Also, the GI50 in [7] is 9.18 µM (inactive); in [8] it was > 10 µM (inactive); in [9], > 10 µM (inactive); in test [10], > 10 µM (inactive); in [11], > 10 µM (inactive); in test [12] it was > 10 µM (inactive). Also, the GI50 in test [13], in test [14], in test [15], in test [16], in [17] and in test [18] was > 10 µM (inactive) in each case.
For `Clc1ccc(CNc2nc(Cl)c3nc[nH]c3n2)cc1Cl`, the GI50 in test [1] was 20 µM (inactive); in test [2] it was 18.9 µM (inactive); in test [4], 15.8 µM (inactive); in [5], 21.9 µM (inactive); in test [19], 11.1 µM (inactive); in [6] it was 42.7 µM (inactive). Further, the GI50 is 20.3 µM (inactive) in test [7]; 19 µM (inactive) in test [8]; 18 µM (inactive) in test [9]; 11.2 µM (inactive) in test [20]; 32 µM (inactive) in test [10]; 26.5 µM (inactive) in test [11]. For the same compound, the GI50 in [12] was 22.4 µM (inactive); in [14] it was 26.4 µM (inactive); in test [15] it was 13.5 µM (inactive); in [16], 24.2 µM (inactive); in [17] it was 32.1 µM (inactive); in [18], 26.4 µM (inactive).
For the compound `O=c1[nH]nc(-c2ccccc2)c2[nH]c3c(c12)CCCc1ccccc1-3`, the GI50 is 20.7 µM (inactive) in [1]; 19.3 µM (inactive) in test [2]; 16.5 µM (inactive) in [3]; 12.4 µM (inactive) in test [4]; 16.1 µM (inactive) in [5]; 12.5 µM (inactive) in test [6]. For the same compound, the GI50 is 12.8 µM (inactive) in test [7]; 17.6 µM (inactive) in test [8]; 19.6 µM (inactive) in test [9]; 11.7 µM (inactive) in [20]; 13 µM (inactive) in test [10]; 15.1 µM (inactive) in [11]. Also, the GI50 in test [12] was 52.2 µM (inactive); in test [13] it was 20.9 µM (inactive); in test [14], 12.5 µM (inactive); in [15], 17.2 µM (inactive); in [16], 20.7 µM (inactive); in test [18], 11.8 µM (inactive).
`CCCCCCCCC/C=C1/CC(CO)(COC(=O)C2CCCCC2)OC1=O` (stereo not given): the GI50 in [1] was > 100 µM (inactive); in test [2], > 100 µM (inactive); in test [3] it was 72.4 µM (inactive); in test [4], > 100 µM (inactive); in test [5] it was > 100 µM (inactive); in test [19], > 100 µM (inactive). In addition, the GI50 in test [6] was > 100 µM (inactive); in test [7] it was 67.5 µM (inactive); in [8], > 100 µM (inactive); in test [9] it was > 100 µM (inactive); in test [20], > 100 µM (inactive); in test [10] it was 98.4 µM (inactive). Moreover, the GI50 in [11] is > 100 µM (inactive); in test [12], > 100 µM (inactive); in test [14] it was 86.7 µM (inactive); in test [16] it was > 100 µM (inactive); in [17] it was > 100 µM (inactive); in test [18], 43.3 µM (inactive).
Turning to `Fc1cccc(F)c1C1SCc2nc3cc4ccccc4cc3n21` (stereo not given), the GI50 in test [1] was 29.7 µM (inactive); in test [2], 15.7 µM (inactive); in test [3], 32.9 µM (inactive); in test [4], > 100 µM (inactive); in test [5] it was 23.3 µM (inactive); in test [19], 21.2 µM (inactive). The GI50 is 21.7 µM (inactive) in test [6]; 12.1 µM (inactive) in [7]; 80.4 µM (inactive) in test [8]; 47.2 µM (inactive) in test [9]; 23.4 µM (inactive) in test [20]; 49.9 µM (inactive) in [10]. Moreover, the GI50 in test [11] is 17.5 µM (inactive); in test [12], 52.7 µM (inactive); in [14], 39 µM (inactive); in test [15], 17.2 µM (inactive); in test [16], 8.71 µM (inactive); in test [17] it was 20.7 µM (inactive). Moreover, the GI50 in [18] is 39.2 µM (inactive).
For the compound `COc1c(O)cc2c(c1O)C1O[C@H](CO)C(O)[C@H](O)[C@H]1OC2=O` (stereo not given in full), the GI50 in test [1], in test [2], in [3], in test [4], in test [5] and in test [6] was > 100 µM (inactive) each time. The GI50 in [7], in [8], in test [9], in test [10], in test [11] and in test [12] was > 100 µM (inactive) in each case. For the same compound, the GI50 in test [13], in [14], in test [15], in [16], in test [17] and in test [18] was > 100 µM (inactive) each time.
For the compound `COC(=O)C1=CSC2(S1)C(C(=O)OC)=CSc1c2ss/c1=N\c1ccccc1` (stereo not given), the GI50 in [1] was 1.81 µM (inactive); in [2], 3.24 µM (inactive); in [3] it was 1.67 µM (inactive); in test [4], 1.69 µM (inactive); in test [19], 1.64 µM (inactive); in test [6] it was 2.47 µM (inactive). The GI50 was 2.7 µM (inactive) in test [7]; 2.96 µM (inactive) in test [8]; 3.79 µM (inactive) in test [9]; 1.6 µM (inactive) in test [20]; 1.78 µM (inactive) in test [10]; 0.605 µM (active) in test [11]. The GI50 in test [12] is 2.47 µM (inactive); in test [14], 2.17 µM (inactive); in test [15], 1.38 µM (inactive); in test [16], 2.74 µM (inactive); in [17], 2.22 µM (inactive); in [18] it was 0.813 µM (active).
Turning to `NS(=O)(=O)c1nnc(NS(=O)(=O)c2ccc(F)cc2)s1`, the GI50 in [1], in [2], in test [3], in test [4], in test [5] and in [19] was > 100 µM (inactive) each time. For the same compound, the GI50 in test [7], in [8], in test [9], in test [20], in test [10] and in [11] was > 100 µM (inactive) in each case. For the same compound, the GI50 in test [12], in test [14], in test [15] and in test [16] was > 100 µM (inactive) throughout.
As to `COc1cc(N(Cc2ccc3nc(OC)c(OC)nc3c2)Cc2ccc3nc(OC)c(OC)nc3c2)cc(OC)c1OC`, the GI50 in [1] was 19.6 µM (inactive); in [2], 31.5 µM (inactive); in test [3] it was > 50 µM (inactive); in [4] it was > 50 µM (inactive); in test [5], > 50 µM (inactive); in test [8], > 50 µM (inactive). Moreover, the GI50 was 32.9 µM (inactive) in test [9]; > 50 µM (inactive) in test [20]; > 50 µM (inactive) in test [10]; > 50 µM (inactive) in [11]; > 50 µM (inactive) in test [12]; > 50 µM (inactive) in test [13]. For the same compound, the GI50 is > 50 µM (inactive) in test [14]; 26.3 µM (inactive) in test [15]; 6.78 µM (inactive) in [16]; 6.9 µM (inactive) in test [17]; > 50 µM (inactive) in test [18].
Take `CC1OC(OC2C(O)COC(OC3C(C)OC(OC4C(OC(=O)[C@]56CCC(C)(C)C[C@@H]5C5=CCC7[C@@]8(C)C[C@H](O)[C@H](OC9OC(CO)C(O)C(OC%10OC(CO)C(O)C(O)C%10O)C9O)[C@@](C)(CO)[C@@H]8CC[C@@]7(C)[C@]5(C)CC6)OCC(O)C4O)C(O)C3O)C2O)C(O)C(O)C1O` (stereo not given in full): the GI50 in test [1] was 14.4 µM (inactive); in test [2], 14.9 µM (inactive); in [3], 18 µM (inactive); in test [4], 14.5 µM (inactive); in [5] it was 23.1 µM (inactive); in test [19], 11.8 µM (inactive). The GI50 was 31.2 µM (inactive) in test [7]; 14.6 µM (inactive) in [8]; 16.4 µM (inactive) in test [9]; 22.3 µM (inactive) in test [20]; 20.9 µM (inactive) in test [10]; 13.1 µM (inactive) in [11]. Moreover, the GI50 in test [12] is 14.9 µM (inactive); in [14] it was 17.1 µM (inactive); in test [15] it was 18.4 µM (inactive); in test [16] it was 22.4 µM (inactive); in test [17], 18.9 µM (inactive); in test [18], 13.8 µM (inactive).
`O=C1NC(N2CCOCC2)=N/C1=C\c1ccco1`: the GI50 in [1], in test [2], in test [3], in test [4], in test [5] and in test [6] was > 100 µM (inactive) throughout. The GI50 in [8], in [9], in [20], in test [10], in [11] and in test [12] was > 100 µM (inactive) each time. Besides, the GI50 in [13], in test [14], in test [15], in test [16] and in test [17] was > 100 µM (inactive) throughout.
